Data reported in ChEMBL document CHEMBL3259536, “New 2H-chromene-3-carboxamide derivatives: design, synthesis and use as inhibitors of hMAO” (Eur J Med Chem, 2014).

Columns and labels:
[1] = molecular target: T1, Amine oxidase [flavin-containing] A (Homo sapiens, UniProt P21397); test: Inhibition of human recombinant MAO-A expressed in baculovirus infected insect cell microsomes assessed as p-tyramine conversion to resorufin and H2O2 after 15 mins by fluorimetric assay
T1 sequence (P21397 whole entry): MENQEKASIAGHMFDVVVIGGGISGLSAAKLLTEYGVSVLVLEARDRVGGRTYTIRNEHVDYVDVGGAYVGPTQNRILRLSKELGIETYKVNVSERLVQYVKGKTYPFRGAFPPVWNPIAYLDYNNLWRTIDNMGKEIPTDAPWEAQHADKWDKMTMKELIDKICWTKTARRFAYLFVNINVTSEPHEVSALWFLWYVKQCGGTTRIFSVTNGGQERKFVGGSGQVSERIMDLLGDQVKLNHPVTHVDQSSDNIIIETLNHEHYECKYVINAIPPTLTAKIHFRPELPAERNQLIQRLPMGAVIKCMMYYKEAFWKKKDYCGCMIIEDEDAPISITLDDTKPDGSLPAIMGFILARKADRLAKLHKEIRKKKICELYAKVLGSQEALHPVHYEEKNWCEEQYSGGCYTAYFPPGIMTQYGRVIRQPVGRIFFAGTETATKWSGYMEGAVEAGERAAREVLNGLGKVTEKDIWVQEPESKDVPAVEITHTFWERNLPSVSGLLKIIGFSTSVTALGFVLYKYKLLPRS

[2] = molecular target: T2, Amine oxidase [flavin-containing] B (Homo sapiens, UniProt P27338); test: Inhibition of human recombinant MAO-B expressed in baculovirus infected insect cell microsomes assessed as p-tyramine conversion to resorufin and H2O2 after 15 mins by fluorimetric assay
T2 sequence (P27338 whole entry): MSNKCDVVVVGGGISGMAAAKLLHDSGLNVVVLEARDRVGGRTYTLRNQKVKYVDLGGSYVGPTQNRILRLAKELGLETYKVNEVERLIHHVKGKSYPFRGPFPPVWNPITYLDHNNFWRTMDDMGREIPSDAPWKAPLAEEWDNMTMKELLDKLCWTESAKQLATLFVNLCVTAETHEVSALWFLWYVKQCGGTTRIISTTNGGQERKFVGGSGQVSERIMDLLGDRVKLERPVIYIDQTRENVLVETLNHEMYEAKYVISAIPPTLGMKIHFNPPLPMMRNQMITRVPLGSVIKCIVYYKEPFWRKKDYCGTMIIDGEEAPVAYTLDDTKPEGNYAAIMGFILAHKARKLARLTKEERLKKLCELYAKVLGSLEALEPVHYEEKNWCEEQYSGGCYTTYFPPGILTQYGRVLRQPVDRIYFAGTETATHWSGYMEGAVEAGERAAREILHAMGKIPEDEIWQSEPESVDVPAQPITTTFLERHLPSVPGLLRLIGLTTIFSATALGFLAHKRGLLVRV

Homo sapiens = species on record: Homo sapiens; test: Selectivity index, ratio of IC50 for human recombinant MAO-A to IC50 for human recombinant MAO-B
[3] = molecular target: T1, Amine oxidase [flavin-containing] A; test: Inhibition of human recombinant MAO-A expressed in baculovirus infected insect cell microsomes assessed as p-tyramine conversion to resorufin and H2O2 at 60 uM after 15 mins by fluorimetric assay; details: 0.25 h
[4] = molecular target: T2, Amine oxidase [flavin-containing] B; test: Inhibition of human recombinant MAO-B expressed in baculovirus infected insect cell microsomes assessed as p-tyramine conversion to resorufin and H2O2 at 60 uM after 15 mins by fluorimetric assay; details: 0.25 h

| SMILES | IC50 [1] | IC50 [2] | Ratio IC50 (Homo sapiens) | inhibition (INH) [3] | inhibition (INH) [4] |
| --- | --- | --- | --- | --- | --- |
| CCCCCCN(CCCCCC)C(=O)c1cc2ccccc2oc1=O | 14.2 µM | 8.05 µM | 1.8 | – | – |
| Cc1cccc(NC(=O)c2cc3cc(Br)cc(Br)c3oc2=O)c1 | – | 21.5 µM | 2.78 | Not Active | – |
| O=C(c1cc2cc(Br)cc(Br)c2oc1=O)N(c1ccccc1)c1ccccc1 | – | – | – | Not Active | Not Active |
| COc1ccccc1NC(=O)c1cc2ccccc2oc1=O | – | 35.4 µM | 1.7 | Not Active | – |
| O=C(NCCCN1CCOCC1)c1cc2ccccc2oc1=O | 42.3 µM | 13.5 µM | 3.1 | – | – |
| O=C(NCCCN1CCOCC1)c1cc2cc([N+](=O)[O-])ccc2oc1=O | – | 46.1 µM | 1.3 | Not Active | – |
| Cc1ccccc1NC(=O)c1cc2cc(Br)cc(Br)c2oc1=O | – | 4.68 µM | 12.8 | Not Active | – |
| COc1ccccc1NC(=O)c1cc2cc(Br)cc(Br)c2oc1=O | – | 20.2 µM | 2.97 | Not Active | – |
| CCC(C)NC(=O)c1cc2cc([N+](=O)[O-])ccc2oc1=O (centres undefined) | 37.5 µM | 19.1 µM | 1.97 | – | – |
| Cc1ccccc1NC(=O)c1cc2ccccc2oc1=O | – | 2.96 µM | 20.3 | Not Active | – |
| CC(C)(C)NC(=O)c1cc2cc(Br)cc(Br)c2oc1=O | 31.5 µM | 14.7 µM | 2.1 | – | – |
| O=C(c1cc2ccccc2oc1=O)N(c1ccccc1)c1ccccc1 | – | – | – | Not Active | Not Active |
| O=C(NCCCN1CCOCC1)c1cc2cc(Br)cc(Br)c2oc1=O | 32.4 µM | 10.6 µM | 3.1 | – | – |

More lines, now with the values ahead:

| IC50 [1] | IC50 [2] | Ratio IC50 (Homo sapiens) | inhibition (INH) [3] | inhibition (INH) [4] | SMILES |
| --- | --- | --- | --- | --- | --- |
| – | 50 µM | 1.2 | Not Active | – | COc1ccccc1NC(=O)c1cc2cc([N+](=O)[O-])ccc2oc1=O |
| – | 7.09 µM | 8.46 | Not Active | – | O=C(Nc1cccc(C(F)(F)F)c1)c1cc2cc(Br)cc(Br)c2oc1=O |
| – | 29.4 µM | 2 | Not Active | – | Cc1ccccc1NC(=O)c1cc2cc([N+](=O)[O-])ccc2oc1=O |
| – | – | – | Not Active | – | Cc1cccc(NC(=O)c2cc3ccccc3oc2=O)c1 |
| – | 22.8 µM | 2.6 | Not Active | – | O=C(Nc1cccc(C(F)(F)F)c1)c1cc2cc([N+](=O)[O-])ccc2oc1=O |
| – | – | – | Not Active | – | O=C(Nc1cccc(C(F)(F)F)c1)c1cc2ccccc2oc1=O |
| – | 39.1 µM | 1.5 | Not Active | – | Cc1cccc(NC(=O)c2cc3cc([N+](=O)[O-])ccc3oc2=O)c1 |
